Laboratory results: patent US12036237B2, “Bromide source for use in treating autism spectral disorder” (INSERM (INSTITUT NATIONAL DE LA SANTE ET DE LA RECHERCHE …, priority 2016, dated 2024)
Entries after “also recorded” stand apart in the source; their conditions may differ.

Assays:
Oprm1−/− mice [1] = test: Locomotor activity by videotracking; type: in vivo; conditions: Example 2; for locomotor activity after bromide administration: 250 and 500 mg/kg
Protocol: Sodium bromide (anhydrous, Sigma-Aldrich, Saint-Quentin, France) dissolved in saline solution (NaCl, 0.9%) at the dose of 250 or 500 mg/kg, or vehicle (NaCl, 0.9%), was administered intraperitoneally once a day for 19 days in a volume of 20 ml/kg. On testing days, bromide was administered 30 min before behavioural assays. Bumetanide (Tocris, provided by Bio-Techne, Lille, France) dissolved in NaCl 0.9% at the dose of 0.5 mg/kg (Deidda et al, 2015) or vehicle was administered intraperitoneally once a day for 19 days in a volume of 20 ml/kg.
Locomotor activity. Locomotor activity was assessed in clear cages (21×11×17 cm) placed over a white Plexiglas infrared-lit platform. Light intensity of the room was set at 15 lx. The trajectories of the mice were analyzed and recorded via an automated tracking system equipped with an infrared-sensitive camera (Videotrack; View Point, Lyon, France). To focus on forward activity, only movements which speed was over 6 cm/s were taken into account for the measure of locomotor activity. Behavioral testing started when the animals were placed in the activity boxes for a 30 min-habituation period. They were then injected with either vehicle or sodium bromide (250 or 500 mg/kg) and locomotor activity was monitored for further 90 min.

[2] = literature statement (Romermann et al, 2017); cited from earlier work
Oprm1−/− mice [3] = test: Motor stereotypies scoring
[4] = Example 2, Oprm1 wild-type and mutants, bromide 250, 500 mg/kg
[5] = Example 2, Oprm1 wild-type and mutants, bromide 250, 500 mg/kg, listed as Bromide
[6] = Example 2, bromide 250, 500 mg/kg
[7] = Oprm1−/− mice, bromide 125, 250, 500 mg/kg i.p. daily
[8] = all animals, bromide 125, 250, 500 mg/kg i.p. daily

Structure (SMILES): [Br-].[Na+] [bromide, Sodium bromide]
- locomotor activity during the habituation run (Oprm1−/− mice [1]; chronically treated animals, males since 250 mg/kg, females only at 500 mg/kg): higher
- locomotor activity after bromide administration (Oprm1−/− mice [1]; controls (wild-type)): not modified in controls at 250 mg/kg and was increased at 500 mg/kg; also recorded: at the dose of 500 mg/kg only
- locomotor activity (overall) (Oprm1−/− mice [1]; mice, bromide 250 mg/kg, males more sensitive): increases
- locomotor activity after bromide administration (Oprm1−/− mice [1]; mutant (KO) animals): increased in mutant animals at the dose of 250 mg/kg, but not at 500 mg/kg; also recorded: increased activity
- ability to cross the blood brain barrier [2]: easily cross this barrier
- number of grooming episodes (Oprm1−/− mice [3]; [4]): increased grooming episodes in wild-type (WT) animals without effects in mu opioid receptor knockouts
- number of head shakes (Oprm1−/− mice [3]; [4]): increased the number of head shakes in control mice to the level of mutants
- number of grooming episodes (Oprm1−/− mice [3]; [5]): increased the number of grooming episodes and male and female wild-type mice, but not in mutants
- number of head shakes (Oprm1−/− mice [3]; [5]): increased the number of head shakes in male and female wild-type mice, not in mutants
- motor stereotypies (overall) (Oprm1−/− mice [3]; Example 2, Oprm1−/− mice, bromide 250, 500 mg/kg): little effect
- time spent burying (Oprm1−/− mice [3]; Example 2, all treated animals, bromide 250, 500 mg/kg): decreased
- circling behavior (Oprm1−/− mice [3]; [6]): little effect
- number of burying episodes and their duration (Oprm1−/− mice [3]; [6]): did not modify
- circling behavior (Oprm1−/− mice [3]; Example 2, bromide 250, 500 mg/kg, listed as Bromide): no effect
- number of rearing episodes (Oprm1−/− mice [3]; Example 2, males since 250 mg/kg, females at 500 mg/kg only): increased the number of rearing episodes in wild-type and not knockout animals
- number of grooming episodes (Oprm1−/− mice [3]; Oprm1−/− and wild-type, bromide 125, 250, 500 mg/kg i.p. daily): dose-dependently increased the number of grooming episodes, but in wild-type animals only; also recorded: increased grooming occurrence in wild-type animals only
- motor stereotypies (shakes and circling), overall (Oprm1−/− mice [3]; [7]): efficiently reduce; also recorded: demonstrated efficacy in reducing; also recorded: significant decrease
- number of circling episodes (Oprm1−/− mice [3]; [7]): normalized
- number of circling episodes (Oprm1−/− mice [3]; Oprm1−/− mice, bromide 125, 250, 500 mg/kg i.p. daily, listed as Bromide): decreased
- number of shakes (Oprm1−/− mice [3]; Oprm1−/− mutant mice, bromide 125, 250, 500 mg/kg i.p. daily): reduced their occurrence
- number of shakes (Oprm1−/− mice [3]; Oprm1−/− mutant mice, bromide 125, 250, 500 mg/kg i.p. daily, listed as Bromide): decreased
- number of rearing episodes (Oprm1−/− mice [3]; all animals (Oprm1−/− and wild-type), bromide 125, 250, 500 mg/kg i.p. daily): increased
- number of burying episodes (Oprm1−/− mice [3]; [8]): dose-dependently reduced; also recorded: dose dependently reduced
- time spent burying (Oprm1−/− mice [3]; [8]): dose-dependently reduced
- number of shakes (Oprm1−/− mice [3]; wild-type (Oprm1+/+) mice, bromide 125, 250, 500 mg/kg i.p. daily): dose-dependently increased
- number of shakes (Oprm1−/− mice [3]; wild-type (Oprm1+/+) mice, bromide 125, 250, 500 mg/kg i.p. daily, listed as Bromide): increased
